Assay results from patent publication US20250215029A1 (Recludix Pharma, Inc., priority 2022, published 2025).
Read-outs that look alike come from different tables or passages of the source.

Assays:
[1] = target: T1, Recombinant STAT3 protein (STAT3 (G127-I722)) (Homo sapiens, UniProt P40763); test: STAT3 Fluorescence Polarization (FP) Assay; format: binding; conditions: probe 5-FAM-GpYLPQTV-NH2 2 nM, 45-minute incubation
T1 construct: Recombinant STAT3 protein (STAT3 (G127-I722))
Summary of the method: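 Compounds in serial dilution receive a premix of STAT3 (G127-I722, 25 nM) and fluorescent phosphotyrosine peptide 5-FAM-GpYLPQTV-NH2 (2 nM) at pH 7.4. After 45 min at room temperature, FP is measured and IC50 derived by nonlinear regression.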

[2] = target: T2, Recombinant STAT6 protein (STAT6 (W123-T658)) (Homo sapiens, UniProt P42226); test: STAT6 Fluorescence Polarization (FP) Assay; format: binding; conditions: probe 5-FAM-Ap[…]-NH2 2 nM, 45-minute incubation
T2 construct: Recombinant STAT6 protein (STAT6 (W123-T658))
T2 sequence (P42226 123-658): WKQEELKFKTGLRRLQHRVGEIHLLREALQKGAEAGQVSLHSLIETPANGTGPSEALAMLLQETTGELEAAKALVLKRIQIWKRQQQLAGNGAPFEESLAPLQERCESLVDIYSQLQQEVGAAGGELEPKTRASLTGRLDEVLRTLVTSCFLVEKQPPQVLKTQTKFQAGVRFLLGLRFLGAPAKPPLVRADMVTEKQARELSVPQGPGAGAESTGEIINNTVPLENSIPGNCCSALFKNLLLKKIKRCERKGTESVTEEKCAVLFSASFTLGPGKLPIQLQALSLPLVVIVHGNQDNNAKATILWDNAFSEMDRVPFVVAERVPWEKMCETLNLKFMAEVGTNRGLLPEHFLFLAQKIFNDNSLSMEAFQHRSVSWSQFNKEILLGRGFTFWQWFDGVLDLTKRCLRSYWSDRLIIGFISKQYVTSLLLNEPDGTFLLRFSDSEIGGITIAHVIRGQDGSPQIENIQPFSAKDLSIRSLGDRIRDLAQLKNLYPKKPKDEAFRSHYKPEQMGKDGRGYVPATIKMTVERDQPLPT
Summary of the method: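 STAT6 (W123-T658) at 250 nM was mixed with 2 nM 5-FAM-labeled phosphotyrosine peptide probe in HEPES pH 7.4 buffer with NaCl, EDTA, Tween 20 and DTT, then added to serially diluted compounds at 1% DMSO final. Polarization was read after 45 min at room temperature; IC50 came from nonlinear regression of mP versus log concentration.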

[3] = STAT3 25 nM, read-out: STAT3 (FP assay IC50)
[4] = STAT6 250 nM, read-out: STAT6 (FP assay IC50)
[5] = STAT3 (G127-I722) 25 nM, read-out: STAT3 (FP assay IC50 class)
[6] = STAT6 (W123-T658) 250 nM, read-out: STAT6 (FP assay IC50 class)

T1 sequence (P40763 127-722): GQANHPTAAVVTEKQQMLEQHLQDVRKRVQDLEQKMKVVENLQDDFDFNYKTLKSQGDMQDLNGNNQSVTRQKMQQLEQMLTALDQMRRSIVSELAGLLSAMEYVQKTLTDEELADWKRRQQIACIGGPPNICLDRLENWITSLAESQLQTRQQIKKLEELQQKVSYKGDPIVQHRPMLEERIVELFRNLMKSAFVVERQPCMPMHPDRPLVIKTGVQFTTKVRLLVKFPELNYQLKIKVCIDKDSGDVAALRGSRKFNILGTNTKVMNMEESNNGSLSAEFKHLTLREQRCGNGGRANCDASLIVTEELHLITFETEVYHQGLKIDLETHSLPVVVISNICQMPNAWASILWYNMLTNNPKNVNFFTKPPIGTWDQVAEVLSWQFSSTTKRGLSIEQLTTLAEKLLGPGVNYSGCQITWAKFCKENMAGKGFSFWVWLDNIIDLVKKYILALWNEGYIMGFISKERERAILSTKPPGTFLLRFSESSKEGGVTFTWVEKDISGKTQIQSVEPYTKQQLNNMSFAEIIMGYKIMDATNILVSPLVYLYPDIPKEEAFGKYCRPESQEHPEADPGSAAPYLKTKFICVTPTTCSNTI

SMILES | IC50 [1, 3] [µM] | IC50 [2, 4] [µM] | IC50 [1, 5] [µM] | IC50 [2, 6] [µM]
CCO[C@@H]1CC[C@H]2CC[C@@H](C(=O)N3CC(C(=O)N4CCOCC4)C3)N2C(=O)[C@@H](NC(=O)c2cc3cc(C(F)(F)P(=O)(O)O)ccc3s2)C1 [Compound 11, ((2-(((3S,6S,8R,10aR)-8-ethoxy-3-(3-(morpholine-4-carbonyl)azetidine-1-carbonyl)-5-oxodecahydropyrrolo [1,2-a]azocin-6-yl)carbamoyl)benzo[b]thiophen-5-yl)difluoromethyl) phosphonic acid] | 0.1 to 1 | 3 to 30 | – | –
COCCN(C)c1ccncc1C1CN(C(=O)[C@@H]2CC[C@@H]3CCC[C@H](NC(=O)c4cc5cc([C@@H](F)P(=O)(O)O)ccc5s4)C(=O)N32)C1 [Compound 855, ((S)-fluoro(2-(((3S,6S,9aS)-3-(3-(4-((2-methoxyethyl) (methyl)amino)pyridin-3-yl)azetidine-1-carbonyl)-5-oxooctahydro-1H-pyrrolo[1,2-a]azepin-6-yl)carbamoyl)benzo [b]thiophen-5-yl)methyl) phosphonic acid] | – | – | < 0.1 | 3 to 30
O=C(N[C@H]1CCC[C@H]2CC[C@@H](C(=O)N3CC(c4cnccc4O)C3)N2C1=O)c1cc2cc(CP(=O)(O)O)ccc2s1 [Compound 539, ((2-(((3S,6S,9aS)-3-(3-(4-hydroxypyridin-3-yl)azetidine-1-carbonyl)-5-oxooctahydro-1H-pyrrolo[1,2-a]azepin-6-yl)carbamoyl)benzo[b]thiophen-5-yl)methyl)phosphonic acid] | – | – | < 0.1 | 3 to 30
O=C(N[C@H]1CCCC[C@H]2CC[C@@H](C(=O)N3CC(F)(c4ccccc4F)C3)N2C1=O)c1cc2cc(C(F)(F)P(=O)(O)O)ccc2s1 [Compound 54, (difluoro(2-(((3S,6S,10aS)-3-(3-fluoro-3-(2-fluorophenyl)azetidine-1-carbonyl)-5-oxodecahydropyrrolo [1,2-a]azocin-6-yl)carbamoyl)benzo[b]thiophen-5-yl)methyl) phosphonic acid] | < 0.1 | 0.3 to 3 | – | –
COC(=O)N1C[C@H](NC(=O)[C@@H]2CC[C@@H]3CCCC[C@H](NC(=O)c4cc5cc(C(F)P(=O)(O)O)ccc5s4)C(=O)N32)[C@@H](F)C1 (stereo partly drawn) [Compound 525, (fluoro(2-(((3S,6S,10aS)-3-(((3S,4S)-4-fluoro-1-(methoxycarbonyl)pyrrolidin-3-yl)carbamoyl)-5-oxodecahydropyrrolo[1,2-a]azocin-6-yl)carbamoyl)benzo[b]thiophen-5-yl)methyl)phosphonic acid] | – | – | 1 to 10 | 0.3 to 3
O=C(N[C@H]1CCC[C@H]2CC[C@@H](C(=O)N3CC(c4cncnc4N4CCOCC4)C3)N2C1=O)c1cc2cc([C@H](F)P(=O)(O)O)ccc2s1 (single isomer, unassigned) [Compound 857] | – | – | < 0.1 | 3 to 30
O=C(N[C@H]1CCCC[C@H]2CC[C@@H](C(=O)NCc3cc[nH]c(=O)c3)N2C1=O)c1cc2cc(C(F)(F)P(=O)(O)O)ccc2s1 [Compound 49, (difluoro(2-(((3S,6S,10aS)-5-oxo-3-(((2-oxo-1,2-dihydropyridin-4-yl)methyl)carbamoyl)deca-hydropyrrolo[1,2-a]azocin-6-yl)carbamoyl)benzo[b]thiophen-5-yl)methyl) phosphonic acid] | 0.1 to 1 | 3 to 30 | – | –
N#C[C@@H]1CN(C(=O)[C@@H]2C[C@@H](O)[C@@H]3CCCCC[C@H](NC(=O)c4ccc5ccc(C(F)(F)P(=O)(O)O)cc5c4)C(=O)N23)C[C@H]1c1cc[nH]c(=O)c1 (single isomer, unassigned) [Compound 106, ((7-(((1R,3S,6S, 11aS)-3-((3S,4R or 3R,4S)-3-cyano-4-(2-oxo-1,2-dihydropyridin-4-yl)pyrrolidine-1-carbonyl)-1-hydroxy-5-oxodecahydro-1H-pyrrolo[1,2-a]azonin-6-yl)carbamoyl)naphthalen-2-yl)difluoromethyl) phosphonic acid] | 1 to 10 | ≤ 0.3 | – | –
COC1(c2cncnc2)CN(C(=O)[C@@H]2CC[C@@H]3CCC[C@H](NC(=O)c4cc5cc(C(F)(F)P(=O)(O)O)ccc5s4)C(=O)N32)C1 [Compound 723, (difluoro(2-(((3S,6S,9aS)-3-(3-methoxy-3-(pyrimidin-5-yl)azetidine-1-carbonyl)-5-oxooctahydro-1H-pyrrolo[1,2-a]azepin-6-yl)carbamoyl)benzo [b]thiophen-5-yl)methyl) phosphonic acid] | – | – | 0.1 to 1 | 3 to 30
N#C[C@@H]1[C@@H](c2ccccc2)CN(C(=O)[C@@H]2CC[C@@H]3CCCC[C@H](NC(=O)c4ccc5ccc([C@@H](F)P(=O)(O)O)cc5c4)C(=O)N32)C12CC2 (single isomer, unassigned) [Compound 832] | – | – | 1 to 10 | ≤ 0.3
O=C(N[C@H]1CCC[C@H]2CC[C@@H](C(=O)N3CC(c4cncnc4O)C3)N2C1=O)c1cc2cc(CP(=O)(O)O)ccc2s1 [Compound 605, ((2-(((3S,6S,9aS)-3-(3-(4-hydroxypyrimidin-5-yl)azetidine-1-carbonyl)-5-oxooctahydro-1H-pyrrolo[1,2-a]azepin-6-yl)carbamoyl)benzo [b]thiophen-5-yl)methyl) phosphonic acid] | – | – | < 0.1 | 3 to 30
O=C(N[C@H]1CC[C@H](N2CCC2)C[C@H]2CC[C@@H](C(=O)N3CC(C(=O)N4CCOCC4)C3)N2C1=O)c1cc2cc(C(F)(F)P(=O)(O)O)ccc2s1 [Compound 20, ((2-(((3S,6S,9S,10aR)-9-(azetidin-1-yl)-3-(3-(morpholine-4-carbonyl)azetidine-1-carbonyl)-5-oxodecahydropyrrolo [1,2-a]azocin-6-yl)carbamoyl)benzo[b]thiophen-5-yl)difluoromethyl) phosphonic acid] | 0.1 to 1 | 3 to 30 | – | –
O=C(N[C@H]1CCC[C@H]2CC[C@@H](C(=O)N3CCC(c4ccncn4)CC3)N2C1=O)c1cc2cc(C(F)P(=O)(O)O)ccc2s1 (stereo partly drawn) [Compound 604, (fluoro(2-(((3S,6S,9aS)-5-oxo-3-(4-(pyrimidin-4-yl)piperidine-1-carbonyl)octahydro-1H-pyrrolo[1,2-a]azepin-6-yl)carbamoyl)benzo [b]thiophen-5-yl)methyl) phosphonic acid] | – | – | 0.1 to 1 | 3 to 30
COC[C@@H]1CCN1c1ncncc1C1CN(C(=O)[C@@H]2CC[C@@H]3CCC[C@H](NC(=O)c4cc5cc([C@H](F)P(=O)(O)O)ccc5s4)C(=O)N32)C1 (single isomer, unassigned) [Compound 862] | – | – | < 0.1 | 3 to 30
N#CC1CN(c2ccncc2C2CN(C(=O)[C@@H]3CC[C@@H]4CCC[C@H](NC(=O)c5cc6cc(CP(=O)(O)O)ccc6s5)C(=O)N43)C2)C1 [Compound 680, ((2-(((3S,6S,9aS)-3-(3-(4-(3-cyanoazetidin-1-yl)pyridin-3-yl)azetidine-1-carbonyl)-5-oxooctahydro-1H-pyrrolo[1,2-a]azepin-6-yl)carbamoyl)benzo [b]thiophen-5-yl)methyl) phosphonic acid] | – | – | < 0.1 | 3 to 30
CC[C@@H]1CC[C@H](NC(=O)c2cc3cc([C@H](F)P(=O)(O)O)ccc3s2)C(=O)N2[C@H](CC[C@H]2C(=O)N2CC(c3cnccc3N3CCC3)C2)C1 [Compound 931, ((R)-(2-(((3S,6S,9R,10aR)-3-(3-(4-(azetidin-1-yl)pyridin-3-yl)azetidine-1-carbonyl)-9-ethyl-5-oxodecahydropyrrolo [1,2-a]azocin-6-yl)carbamoyl)benzo [b]thiophen-5-yl)fluoromethyl) phosphonic acid] | – | – | < 0.1 | 0.3 to 3
N#C[C@H]1[C@H](c2ccccc2)CN(C(=O)[C@@H]2CC[C@@H]3C[C@@H](N4CCC4)CC[C@H](NC(=O)c4cc5cc([C@H](F)P(=O)(O)O)ccc5s4)C(=O)N32)C12CC2 (single isomer, unassigned) [Compound 936] | – | – | 1 to 10 | ≤ 0.3
CN(C)C(=O)N1CC[C@@H](NC(=O)[C@@H]2CC[C@@H]3CCCC[C@H](NC(=O)c4cc5cc(C(F)P(=O)(O)O)ccc5s4)C(=O)N32)C1 (stereo partly drawn) [Compound 529, ((2-(((3S,6S,10aS)-3-(((R)-1-(dimethylcarbamoyl)pyrrolidin-3-yl)carbamoyl)-5-oxodecahydropyrrolo[1,2-a]azocin-6-yl)carbamoyl)benzo[b]thiophen-5-yl)fluoromethyl)phosphonic acid] | – | – | 0.1 to 1 | 3 to 30
